Test system: subjects with chronic ITP
Assay: Combined 28-day and 6-month rollover studies of E5501: safety (TEAEs, serious TEAEs, thromboembolic events, neoplasms, liver toxicity, discontinuations)
Type: in vivo, human
Conditions: N=22
Source text: Primary Endpoint: The primary endpoint was to assess the safety and tolerability to E5501, including AEs and clinical laboratory parameters, over the 6 additional months of treatment.
In this way, safety data reflect each subject's complete duration of exposure to E5501 starting with lead-in the previous study and continuing into the current study.
Following Protocol Amendment 4, the current study contained a flexible dose regimen; therefore, this study was considered to have an open-label, uncontrolled, single-arm design. […] This was the method used to assess safety. • Grouping method B was based on both treatment received and day 28 platelet response to study drug in Study the previous study. This was the method used for the analysis of efficacy for the FAS and the SE population.
Overall Adverse Events. […] The primary focus is on summary statistics for the entire safety population and provides an overall safety profile for E5501. The summary statistics for each group, e.g., lower ⅓, middle ⅓ and upper ⅓ average daily dose levels, is secondary and provides further safety information across the 3 dose levels.

Compound: O=C(Nc1nc(-c2cc(Cl)cs2)c(N2CCN(C3CCCCC3)CC2)s1)c1cnc(N2CCC(C(=O)O)CC2)c(Cl)c1 [E5501, 1-(3-chloro-5-{[4-(4-chlorothiophen-2-yl)-5-(4-cyclohexylpiperazin-1-yl)thiazol-2-yl]carbamoyl}pyridine-2-yl)piperidine-4-carboxylic acid]
- Serious TEAE, n of subjects (Lower ⅓ dose (2.5-<8.85 mg)): 1
- Serious treatment-related TEAEs, % of subjects (Lower ⅓ dose (2.5-<8.85 mg)): (4.5) %
- Serious treatment-related TEAEs, n of subjects (Lower ⅓ dose (2.5-<8.85 mg)): 1
- Severe (grade 3-4) TEAEs, % of subjects (Lower ⅓ dose (2.5-<8.85 mg)): (18.2) %
- Severe (grade 3-4) TEAEs, n of subjects (Lower ⅓ dose (2.5-<8.85 mg)): 4
- Somnolence, n of subjects (Lower ⅓ dose (2.5-<8.85 mg)): 0
- Suspected drug-related AEs, % of subjects (Lower ⅓ dose (2.5-<8.85 mg)): (59.1) %
- Suspected drug-related AEs, n of subjects (Lower ⅓ dose (2.5-<8.85 mg)): 13
- Upper respiratory tract infection, % of subjects (Lower ⅓ dose (2.5-<8.85 mg)): (9.1) %
- Upper respiratory tract infection, n of subjects (Lower ⅓ dose (2.5-<8.85 mg)): 2
- Vomiting, % of subjects (Lower ⅓ dose (2.5-<8.85 mg)): (4.5) %
- Vomiting, n of subjects (Lower ⅓ dose (2.5-<8.85 mg)): 1
- Withdrawal due to TEAE, % of subjects (Lower ⅓ dose (2.5-<8.85 mg)): (13.6) %
- Withdrawal due to TEAE, n of subjects (Lower ⅓ dose (2.5-<8.85 mg)): 3
- Abdominal pain upper, n of subjects (Middle ⅓ dose (≧8.85-<13.5 mg)): 0
- Any Serious TEAE, n (%) of subjects (Middle ⅓ dose (≧8.85-<13.5 mg)): 3 (13.6) n (%)
- Any TEAE, % of subjects (Middle ⅓ dose (≧8.85-<13.5 mg)): (100.0) %
- Any TEAE, n of subjects (Middle ⅓ dose (≧8.85-<13.5 mg)): 22
- Arthralgia, % of subjects (Middle ⅓ dose (≧8.85-<13.5 mg)): (18.2) %
- Arthralgia, n of subjects (Middle ⅓ dose (≧8.85-<13.5 mg)): 4
- Asthenia, n of subjects (Middle ⅓ dose (≧8.85-<13.5 mg)): 0
- Back pain, % of subjects (Middle ⅓ dose (≧8.85-<13.5 mg)): (9.1) %
- Back pain, n of subjects (Middle ⅓ dose (≧8.85-<13.5 mg)): 2
- Constipation, % of subjects (Middle ⅓ dose (≧8.85-<13.5 mg)): (13.6) %
- Constipation, n of subjects (Middle ⅓ dose (≧8.85-<13.5 mg)): 3
- Contusion, % of subjects (Middle ⅓ dose (≧8.85-<13.5 mg)): (13.6) %
- Contusion, n of subjects (Middle ⅓ dose (≧8.85-<13.5 mg)): 3
- Cough, n of subjects (Middle ⅓ dose (≧8.85-<13.5 mg)): 0
- Deaths, n of subjects (Middle ⅓ dose (≧8.85-<13.5 mg)): 0
- Diarrhoea, % of subjects (Middle ⅓ dose (≧8.85-<13.5 mg)): (4.5) %
- Diarrhoea, n of subjects (Middle ⅓ dose (≧8.85-<13.5 mg)): 1
- Dizziness, % of subjects (Middle ⅓ dose (≧8.85-<13.5 mg)): (4.5) %
- Dizziness, n of subjects (Middle ⅓ dose (≧8.85-<13.5 mg)): 1
- Dose interruption due to TEAE, % of subjects (Middle ⅓ dose (≧8.85-<13.5 mg)): (13.6) %
- Dose interruption due to TEAE, n of subjects (Middle ⅓ dose (≧8.85-<13.5 mg)): 3
- Dyspnoea, % of subjects (Middle ⅓ dose (≧8.85-<13.5 mg)): (13.6) %
- Dyspnoea, n of subjects (Middle ⅓ dose (≧8.85-<13.5 mg)): 3
- Ecchymosis, % of subjects (Middle ⅓ dose (≧8.85-<13.5 mg)): (9.1) %
- Ecchymosis, n of subjects (Middle ⅓ dose (≧8.85-<13.5 mg)): 2
- Epistaxis, % of subjects (Middle ⅓ dose (≧8.85-<13.5 mg)): (13.6) %
- Epistaxis, n of subjects (Middle ⅓ dose (≧8.85-<13.5 mg)): 3
- Fatigue, % of subjects (Middle ⅓ dose (≧8.85-<13.5 mg)): (31.8) %
- Fatigue, n of subjects (Middle ⅓ dose (≧8.85-<13.5 mg)): 7
- Gingival bleeding, % of subjects (Middle ⅓ dose (≧8.85-<13.5 mg)): (9.1) %
- Gingival bleeding, n of subjects (Middle ⅓ dose (≧8.85-<13.5 mg)): 2
- Headache, % of subjects (Middle ⅓ dose (≧8.85-<13.5 mg)): (40.9) %
- Headache, n of subjects (Middle ⅓ dose (≧8.85-<13.5 mg)): 9
- Insomnia, % of subjects (Middle ⅓ dose (≧8.85-<13.5 mg)): (13.6) %
- Insomnia, n of subjects (Middle ⅓ dose (≧8.85-<13.5 mg)): 3
- Migraine, % of subjects (Middle ⅓ dose (≧8.85-<13.5 mg)): (4.5) %
- Migraine, n of subjects (Middle ⅓ dose (≧8.85-<13.5 mg)): 1
- Mouth haemorrhage, n of subjects (Middle ⅓ dose (≧8.85-<13.5 mg)): 0
- Nausea, % of subjects (Middle ⅓ dose (≧8.85-<13.5 mg)): (9.1) %
- Nausea, n of subjects (Middle ⅓ dose (≧8.85-<13.5 mg)): 2
- Pain in extremity, % of subjects (Middle ⅓ dose (≧8.85-<13.5 mg)): (9.1) %
- Pain in extremity, n of subjects (Middle ⅓ dose (≧8.85-<13.5 mg)): 2
- Petechiae, % of subjects (Middle ⅓ dose (≧8.85-<13.5 mg)): (4.5) %
- Petechiae, n of subjects (Middle ⅓ dose (≧8.85-<13.5 mg)): 1
- Platelet count increased, % of subjects (Middle ⅓ dose (≧8.85-<13.5 mg)): (9.1) %
- Platelet count increased, n of subjects (Middle ⅓ dose (≧8.85-<13.5 mg)): 2
- Serious TEAE Cerebrovascular accident, n (%) of subjects (Middle ⅓ dose (≧8.85-<13.5 mg)): 0 n (%)
- Serious TEAE Chest pain, n (%) of subjects (Middle ⅓ dose (≧8.85-<13.5 mg)): 0 n (%)
- Serious TEAE Diarrhoea, n (%) of subjects (Middle ⅓ dose (≧8.85-<13.5 mg)): 0 n (%)
- Serious TEAE Haemorrhage intracranial, n (%) of subjects (Middle ⅓ dose (≧8.85-<13.5 mg)): 1 (4.5) n (%)
- Serious TEAE Lethargy, n (%) of subjects (Middle ⅓ dose (≧8.85-<13.5 mg)): 1 (4.5) n (%)
- Serious TEAE Mitral valve incompetence, n (%) of subjects (Middle ⅓ dose (≧8.85-<13.5 mg)): 0 n (%)
- Serious TEAE Myocardial infarction, n (%) of subjects (Middle ⅓ dose (≧8.85-<13.5 mg)): 1 (4.5) n (%)
- Serious TEAE Nausea, n (%) of subjects (Middle ⅓ dose (≧8.85-<13.5 mg)): 1 (4.5) n (%)
- Serious TEAE Pelvic venous thrombosis, n (%) of subjects (Middle ⅓ dose (≧8.85-<13.5 mg)): 1 (4.5) n (%)
- Serious TEAE Platelet count decreased, n (%) of subjects (Middle ⅓ dose (≧8.85-<13.5 mg)): 1 (4.5) n (%)
- Serious TEAE Pneumonia, n (%) of subjects (Middle ⅓ dose (≧8.85-<13.5 mg)): 1 (4.5) n (%)
- Serious TEAE Pyrexia, n (%) of subjects (Middle ⅓ dose (≧8.85-<13.5 mg)): 0 n (%)
- Serious TEAE Thrombocytopenia, n (%) of subjects (Middle ⅓ dose (≧8.85-<13.5 mg)): 0 n (%)
- Serious TEAE Transient ischaemic attack, n (%) of subjects (Middle ⅓ dose (≧8.85-<13.5 mg)): 1 (4.5) n (%)
- Serious TEAE Vomiting, n (%) of subjects (Middle ⅓ dose (≧8.85-<13.5 mg)): 1 (4.5) n (%)
- Serious TEAE, % of subjects (Middle ⅓ dose (≧8.85-<13.5 mg)): (13.6) %
- Serious TEAE, SOC Blood and lymphatic system disorders, n (%) of subjects (Middle ⅓ dose (≧8.85-<13.5 mg)): 0 n (%)
- Serious TEAE, SOC Cardiac disorders, n (%) of subjects (Middle ⅓ dose (≧8.85-<13.5 mg)): 1 (4.5) n (%)
- Serious TEAE, SOC Gastrointestinal disorders, n (%) of subjects (Middle ⅓ dose (≧8.85-<13.5 mg)): 1 (4.5) n (%)
- Serious TEAE, SOC General disorders and administration site conditions, n (%) of subjects (Middle ⅓ dose (≧8.85-<13.5 mg)): 0 n (%)
- Serious TEAE, SOC Infections and infestations, n (%) of subjects (Middle ⅓ dose (≧8.85-<13.5 mg)): 1 (4.5) n (%)
- Serious TEAE, SOC Investigations, n (%) of subjects (Middle ⅓ dose (≧8.85-<13.5 mg)): 1 (4.5) n (%)
- Serious TEAE, SOC Nervous system disorders, n (%) of subjects (Middle ⅓ dose (≧8.85-<13.5 mg)): 2 (9.1) n (%)
- Serious TEAE, SOC Vascular disorders, n (%) of subjects (Middle ⅓ dose (≧8.85-<13.5 mg)): 1 (4.5) n (%)
- Serious TEAE, n of subjects (Middle ⅓ dose (≧8.85-<13.5 mg)): 3
- Serious treatment-related TEAEs, % of subjects (Middle ⅓ dose (≧8.85-<13.5 mg)): (4.5) %
- Serious treatment-related TEAEs, n of subjects (Middle ⅓ dose (≧8.85-<13.5 mg)): 1
- Severe (grade 3-4) TEAEs, % of subjects (Middle ⅓ dose (≧8.85-<13.5 mg)): (22.7) %
- Severe (grade 3-4) TEAEs, n of subjects (Middle ⅓ dose (≧8.85-<13.5 mg)): 5
- Somnolence, n of subjects (Middle ⅓ dose (≧8.85-<13.5 mg)): 0
- Suspected drug-related AEs, % of subjects (Middle ⅓ dose (≧8.85-<13.5 mg)): (68.2) %
- Suspected drug-related AEs, n of subjects (Middle ⅓ dose (≧8.85-<13.5 mg)): 15
- Upper respiratory tract infection, % of subjects (Middle ⅓ dose (≧8.85-<13.5 mg)): (4.5) %
- Upper respiratory tract infection, n of subjects (Middle ⅓ dose (≧8.85-<13.5 mg)): 1

Source: patent US20110166112A1, “METHOD FOR STIMULATING PLATELET PRODUCTION” (Eisai, Inc., priority 2009, published 2011)
